Source: patent US11535597B2, “Photoreactive ligands and uses thereof” (The Scripps Research Institute, priority 2017, dated 2022)
Entries after “also recorded” stand apart in the source; their conditions may differ.

Experiments:
PPARγ = target: T1, PPARγ (Homo sapiens, UniProt P37231); assay: GAL4-PPARγ luciferase reporter assay with empty control vector in HEK293T cells; type: cell-based; conditions: GAL4-PPARγ luciferase reporter and empty control vector
T1 construct: expressed in transfected cells; host or cells: HEK293T
T1 sequence (P37231 238-503 limits assumed): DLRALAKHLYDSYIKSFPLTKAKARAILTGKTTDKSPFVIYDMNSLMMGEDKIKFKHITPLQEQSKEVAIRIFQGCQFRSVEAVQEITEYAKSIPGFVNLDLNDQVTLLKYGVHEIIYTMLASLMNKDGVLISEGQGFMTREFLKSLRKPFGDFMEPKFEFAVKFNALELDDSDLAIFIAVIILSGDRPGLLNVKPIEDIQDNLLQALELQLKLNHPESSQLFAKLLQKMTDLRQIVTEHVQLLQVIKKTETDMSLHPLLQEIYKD
Description: HEK293T cells were transiently co-transfected using Polyethylenimine (Sigma) with a UAS-Luciferase reporter and a vector expressing the heterologous GAL4 DNA binding domain (DBD) or a GAL4 DNA binding domain::PPARγ ligand binding domain (LBD) chimeric protein, and full-length PTGR2. 24 hr after transfection, cells were treated either with vehicle (DMSO), 15k-PGE2 (20 μM), or fragment compounds. Rosiglitazone (2 μM), a synthetic PPARγ ligand, was used as control. 16 hr after incubation, cells were lysed in Cell Culture Lysis Reagent (Promega) and luciferase activity measured using the Luciferase Assay System (Promega).

cathepsin B (CTSB) = target: T2, cathepsin B (CTSB) (Homo sapiens, UniProt P07858); assay: Mapping and competition of FFF probe-modified peptide on cathepsin B (CTSB); type: binding; conditions: active-site proximal peptide
T2 construct: endogenous in cells; host or cells: HEK293T
Description: (§1) Preparation and analysis was adapted from methods previously reported. In brief, for global mapping of fragment probe-modified peptides, separate 10 cm dishes of cells were treated with probes (200-250 μM) in 3.0 mL of DMEM (serum-free) and (if applicable) competitor ligands, proteomes harvested and subjected to click chemistry conditions with either light or heavy isotopically labeled biotin-TEV-azide (10 μL of 5 mM stocks in DMSO, final concentration=100 μM), TCEP, ligand and CuSO4 as detailed above. The samples were allowed to react for 1 h at which point the samples were centrifuged (16,000 g, 5 min, 4° C.). The resulting pellets were sonicated in ice-cold methanol (500 μL) and the resuspended light- and heavy-labeled samples were then combined and centrifuged (16,000 g, 5 min, 4° C.). The pellets were then solubilized in PBS containing 1.2% SDS (1 mL) with sonication and heating (5 min, 95° C.). Samples were transferred to falcon tubes containing DPBS (5 mL), to which a 100 μL of streptavidin-agarose beads slurry was added. […]
(§2) The resulting probe-modified peptides were collected for MS analysis, which was performed as described above with differences in the salt bumps applied in the chromatographic gradients which in this case were 0%, 30%, 60%, 90% and 100% NH4OAc (500 μM). […] The isoTOP ratios for probe labeled peptides were quantified using the in-house software CIMAGE. […]

BAX = target: T3, BAX (Homo sapiens, UniProt Q07812); assay: Mapping of FFF probe-modified peptide on BAX; type: binding; conditions: for Labeled Peptide: residues of probe-labeled peptide
T3 construct: endogenous in cells; host or cells: human cells (HEK293T; a subset of probes also in K562)
Description: as §1, with “added. After incubation, the beads (3 hr) were pelleted by centrifugation (1,400 g, 3 min) and were washed (2×10 mL PBS and 2×10 mL water). The beads were transferred to eppendorf tubes with 1 mL DPBS, centrifuged (1,400 g, 3 min), and resuspended in PBS containing 6 M urea. To this was added 10 mM DTT (25 μL of a 200 mM stock in water) and the beads were incubated at 65° C. for 15 mins. 20 mM iodoacetamide (25 μL of a 400 mM stock in water) was then added and allowed to react at 37° C. for 30 mins with shaking. The bead mixture was diluted with 900 μL PBS, pelleted by centrifugation (1,400 g, 3 min), and resuspended in 200 μL 2M urea (DPBS) containing trypsin and CaCl2 as described above.” for “added.”
as §2

T3 sequence (Q07812 whole entry): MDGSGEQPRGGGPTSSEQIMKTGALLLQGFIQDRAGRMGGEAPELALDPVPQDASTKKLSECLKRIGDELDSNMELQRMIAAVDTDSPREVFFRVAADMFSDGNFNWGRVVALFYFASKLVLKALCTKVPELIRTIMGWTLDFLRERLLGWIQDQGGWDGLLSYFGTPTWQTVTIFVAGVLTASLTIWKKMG

COc1ccccc1N1CCN(C(=O)Cc2ccccc2)CC1 [Compound 22, 1-(4-(2-Methoxyphenyl)piperazin-1-yl)-2-phenylethan-1-one]
direct modulation of PPARγ transcriptional activity (PPARγ): do not directly induce; also recorded: Neither 22 nor 23 directly modulated

C#CCCC1(CCC(=O)Nc2ccc(C3CCNCC3)cc2)N=N1 [probe 9, 3-(3-(But-3-yn-1-yl)-3H-diazirin-3-yl)-N-(4-(piperidin-4-yl)phenyl)propanamide]
probe-modified peptide in CTSB (cathepsin B (CTSB)): aa 315-332

C#CCCC1(CCC(=O)N2CCCCC2Cc2ccccc2)N=N1 (centres unmarked) [probe 13, 1-(2-Benzylpiperidin-1-yl)-3-(3-(but-3-yn-1-yl)-3H-diazirin-3-yl)propan-1-one]
probe-modified peptide in BAX (BAX; groove that binds BH3-domain activators Bim and Bid): aa 66-79 | Labeled Peptide (BAX; protein BAX (Q07812)): 66-78 | Labeled Peptide (BAX; protein BAX Apoptosis regulator BAX): 66-78
